Measured values as given in patent publication US20150104868A1, “Methods of Maintaining and Improving Biological Cell Function and Activity” (GARGILL INCORPORATED, priority 2012, published 2015).

Tested on: CRL 1730 HUVECs
Assay: Microarray transcriptomics of HUVEC (HGERT/HG, HG/NG)
Assay type: cell-based, human
[1] = Breast cancer, Cysteine/gluathione
[2] = Breast cancer, Heat shock protein
[3] = Breast cancer, ILK signaling (integrin linked kinase)
[4] = Breast cancer, Mitotic cell cycle
[5] = Breast cancer, One carbon metabolism
[6] = Breast cancer, Peptidase activity
[7] = Breast cancer, Plasminogen activators
[8] = Breast cancer, Reactive oxygen species
[9] = Breast cancer, Tyrosine phosphatase activity
[10] = HUVEC, 5 mM ERT + 30 mM glucose vs 30 mM glucose

Structure (SMILES): OC[C@@H](O)[C@@H](O)CO [ERT, meso-1,2,3,4-tetrahydroxybutane]
- HGERT/HG TRIT1 (TRNA isopentenyltransferase 1) (Breast cancer, ATP metabolism): 0.98 Ω
- HGERT/HG VPS4B (Vacuolar protein sorting 4 homolog B (S. cerevisiae)) (Breast cancer, ATP metabolism): 0.99 Ω
- HGERT/HG YME1L1 (YME1-like 1 (S. cerevisiae)) (Breast cancer, ATP metabolism): 1.00 Ω
- HGERT/HG CORO1A (Coronin, actin binding protein, 1A) (Breast cancer, Actin binding): 0.94 Ω
- HGERT/HG PLEC1 (Plectin) (Breast cancer, Actin binding): Ψ 1.03
- HGERT/HG JUP (Junction plakoglobin) (Breast cancer, Alpha-catenin binding): Ψ 1.01
- HGERT/HG AHCYL1 (Adenosylhomocysteinase-like 1) [1]: Ψ 1.01
- HGERT/HG ATIC (5-aminoimidazole-4-carboxamide ribonucleotide formyltransferase/IMP cyclohydroiase) [1]: 0.99 Ω
- HGERT/HG ESD (Esterase D) [1]: 0.99 Ω
- HGERT/HG DCK (Deoxycytidine kinase) (Breast cancer, Deoxycytidine metabolism): 0.98 Ω
- HGERT/HG COL4A6 (Collagen, type IV, alpha 6) (Breast cancer, Focal adhesion): Ψ 1.03
- HGERT/HG DNAJC8 (DnaJ (Hsp40) homolog, subfamily C, member 8) [2]: 0.99 Ω
- HGERT/HG DNAJC11 (DnaJ (Hsp40) homolog, subfamily C, member 11) [2]: Ψ 1.01
- HGERT/HG ACTN1 (Breast cancer, Hypoxia response): 0.99 Ω
- HGERT/HG ACTN1 (Actinin, alpha 1) [3]: Ψ 1.01
- HGERT/HG FBLIM1 (Flamin binding LIM protein 1) [3]: Ψ 1.02
- HGERT/HG NCK2 (NCK adaptor protein 2) [3]: Ψ 1.01
- HGERT/HG PXN (Paxillin) [3]: Ψ 1.01
- HGERT/HG RHOB (Ras homolog gene family, member B) [3]: Ψ 1.02
- HGERT/HG RHOJ (Ras homolog gene family, member J) [3]: Ψ 1.02
- HGERT/HG RSU1 (Ras suppressor protein 1) [3]: 0.99 Ω
- HGERT/HG VIM (Vimentin) [3]: 1.00 Ω
- HGERT/HG ACTN1 (Actinin, alpha 1) (Breast cancer, Insulin binding): Ψ 1.01
- HGERT/HG FBLM1 (Filamin binding LIM protein 1) (Breast cancer, Insulin binding): Ψ 1.02
- HGERT/HG NCK2 (NCK adaptor protein 2) (Breast cancer, Insulin binding): Ψ 1.01
- HGERT/HG PIK3R1 (Phosphoinositide-3 kinase, regulatory subunit 1 (alpha)) (Breast cancer, Insulin binding): Ψ 1.03
- HGERT/HG PXN (Paxillin) (Breast cancer, Insulin binding): Ψ 1.01
- HGERT/HG RHOB (Ras homolog gene family, member B) (Breast cancer, Insulin binding): Ψ 1.02
- HGERT/HG RHOJ (Ras homolog gene family, member J) (Breast cancer, Insulin binding): Ψ 1.02
- HGERT/HG RSU1 (Ras suppressor protein 1) (Breast cancer, Insulin binding): 0.99 Ω
- HGERT/HG VIM (Vimentin) (Breast cancer, Insulin binding): 1.00 Ω
- HGERT/HG WDRG (WD repeat domain 6) (Breast cancer, Insulin binding): Ψ 1.02
- HGERT/HG AZI1 (S-azacytidine induced 1) [4]: Ψ 1.02
- HGERT/HG CEP135 (Centrosomal protein 135kDa) [4]: Ψ 1.01
- HGERT/HG CEP250 (Centrosomal protein 250kDa) [4]: 0.99 Ω
- HGERT/HG FGFR1OP (FGFR1 oncogene partner) [4]: 0.99 Ω
- HGERT/HG MPHOSPH6 (M-phase phosphoprotein G) [4]: 0.99 Ω
- HGERT/HG UBA3 (Ubiquitin-like modifier activating enzyme 3) [4]: 0.99 Ω
- HGERT/HG AHCYL1 (Adenosylhomocysteinase-like 1) [5]: Ψ 1.01
- HGERT/HG ATIC (5-aminoimdazole-4-carboxamide ribonucleotide formyltransferase/IMP cyclohydroiase) [5]: 0.99 Ω
- HGERT/HG ESD (Esterase D) [5]: 0.99 Ω
- HGERT/HG OSTM1 (Osteopetrosis associated transmembrane protein 1) (Breast cancer, Osteoclast differentiation): 0.99 Ω
- HGERT/HG CORO1A (Coronin, actin binding protein, 1A) (Breast cancer, PI3 kinase binding): 0.94 Ω
- HGERT/HG ATXN3 (Ataxin 3) [6]: 0.99 Ω
- HGERT/HG OTUD5 (OTU domain containing 5) [6]: Ψ 1.01
- HGERT/HG SENP3 (SUMO1/sentrin/SMT3 sepcific peptidase 3) [6]: Ψ 1.01
- HGERT/HG WFDC12 (WAP four-disulfide core domain 12) [6]: 0.96 Ω
- HGERT/HG BAD2 (Bromodomain containing 2) [7]: Ψ 1.02
- HGERT/HG RHOJ (Ras homolog gene family, member J) [7]: Ψ 1.02
- HGERT/HG COX8A (Cytochrome c oxidase subunit VIIIA (ubiquitous)) [8]: 0.99 Ω
- HGERT/HG JUP (Junction plankoglobin) [8]: Ψ 1.01
- HGERT/HG MPHOSPH6 (M-phase phosphoprotein 6) [8]: 0.99 Ω
- HGERT/HG SDHD (Succinate dehydrogenase complex, subunit D, integral membrane protein) [8]: 0.98 Ω
- HGERT/HG SMOX (Spermine oxidase) [8]: 0.99 Ω
- HGERT/HG SOS1 (Son of sevenless homolog 1 (Drosophila)) [8]: Ψ 1.06
- HGERT/HG TCF12 (Transcription factor 12) [8]: 0.99 Ω
- HGERT/HG TGM2 (Transglutaminase 2 (C polypeptide, protein-glutamine-gamma-glutamyltransferase)) [8]: Ψ 1.01
- HGERT/HG PAQR3 (Progestin and adipoQ receptor family member III) (Breast cancer, Receptor activity): 0.98 Ω
- HGERT/HG EID2 (EP300 interacting inhibitor of differentiation 2) (Breast cancer, SMAD binding): 0.99 Ω
- HGERT/HG PGRMC2 (Progesterone receptor membrane component 2) (Breast cancer, Steroid hormone receptor activity): 0.98 Ω
- HGERT/HG HS3ST1 (Heparan sulfate (glucosamine) 3-O-sulfotransferase 1) (Breast cancer, Sulfotransferase acfivity): Ψ 1.03
- HGERT/HG DUSP23 (Dual specificity phosphatase 23) [9]: 0.99 Ω
- HGERT/HG PTPLAD1 (Protein tyrosine phosphatase-like A domain containing 1) [9]: Ψ 1.01
- transcriptomic changes, HG/NG vs HGERT/HG (HUVEC, HG conditions): reverses many of the transciptomic changes observed in its absence
- HGERT/HG transcript ABCB10 [10]: 0.98 Ω
- HGERT/HG transcript ACTL6A [10]: 0.98 Ω
- HGERT/HG transcript ACTN1 [10]: Ψ 1.01
- HGERT/HG transcript ACTR5 [10]: Ψ 1.01
- HGERT/HG transcript AGTPBP1 [10]: 0.98
- HGERT/HG transcript AHCYL1 [10]: Ψ 1.01
- HGERT/HG transcript ANKZF1 [10]: 0.99
- HGERT/HG transcript ATAD1 [10]: 0.99 Ω
- HGERT/HG transcript ATAD3B [10]: Ψ 1.01
- HGERT/HG transcript ATIC [10]: 0.99 Ω
- HGERT/HG transcript ATP2C1 [10]: 0.99 Ω
- HGERT/HG transcript ATP5E [10]: 0.99 Ω
- HGERT/HG transcript ATP5O [10]: 1.00 Ω
- HGERT/HG transcript ATP13A1 [10]: Ψ 1.02
- HGERT/HG transcript AZI1 [10]: Ψ 1.02
- HGERT/HG transcript BACE1 [10]: Ψ 1.02
- HGERT/HG transcript BBS10 [10]: 0.98 Ω
- HGERT/HG transcript BRD2 [10]: Ψ 1.02
- HGERT/HG transcript Bcl2l12 [10]: Ψ 1.02
- HGERT/HG transcript C3orf26 [10]: 0.99 Ω
- HGERT/HG transcript C6orf66 [10]: 0.99 Ω
- HGERT/HG transcript C20orf7 [10]: 0.99 Ω
- HGERT/HG transcript CARS [10]: 1.00 Ω
- HGERT/HG transcript CENPK [10]: 0.97 Ω
- HGERT/HG transcript CEP135 [10]: Ψ 1.01
- HGERT/HG transcript CEP250 [10]: 0.99
- HGERT/HG transcript CHMP7 [10]: 0.99
- HGERT/HG transcript CIB1 [10]: 1.00 Ω
- HGERT/HG transcript CKAPS [10]: Ψ 1.01
- HGERT/HG transcript CNIH2 [10]: 0.99
- HGERT/HG transcript COG6 [10]: 0.99
- HGERT/HG transcript COL4A6 [10]: Ψ 1.03
- HGERT/HG transcript CORO1A [10]: 0.94 Ω
- HGERT/HG transcript COX8A [10]: 0.99 Ω
- HGERT/HG transcript CSNK1G1 [10]: Ψ 1.02
